Data as given in PMC10349806 (Nature Communications, 2023).
Where a chain is given by its changes, count along the chain named. “And” between values parts separate entries of the source, which are not always exact repeats. Equal values may be shown once.

Key:
PfCRT variant E54A = target: T1, PfCRT variant E54A (Plasmodium falciparum, UniProt Q9N623, A220S/E54A/I356T/K76T/M74I/N326S/N75E/Q271E/R371I); assay: CQ uptake assay, oocytes expressing E54A; format: cell-based
T1 sequence (Q9N623 1-424 E54A/M74I/N75E/K76T/A220S/Q271E/N326S/I356T/R371I): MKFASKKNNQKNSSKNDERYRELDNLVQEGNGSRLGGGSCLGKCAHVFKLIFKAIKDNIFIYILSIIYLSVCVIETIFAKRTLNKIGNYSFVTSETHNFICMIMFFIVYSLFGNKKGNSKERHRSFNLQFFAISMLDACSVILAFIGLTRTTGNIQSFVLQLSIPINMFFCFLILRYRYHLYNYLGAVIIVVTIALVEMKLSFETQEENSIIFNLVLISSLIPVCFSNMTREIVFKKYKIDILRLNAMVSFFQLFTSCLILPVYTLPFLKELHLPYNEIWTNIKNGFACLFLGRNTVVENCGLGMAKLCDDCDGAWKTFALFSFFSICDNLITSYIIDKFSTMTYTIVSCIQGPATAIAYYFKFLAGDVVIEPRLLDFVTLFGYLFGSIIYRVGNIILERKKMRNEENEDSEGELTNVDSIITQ
Procedure: (§1) Site-directed mutagenesis of PfCRT^Dd2 was performed as described using the megaprimer method with overlap extension[21],[54]. The primer pairs used are listed in Supplementary Table 6. Please note that a codon-optimized and oocyte-adapted version of PfCRT^Dd2 was used[22] (Supplementary Fig. 16). The resulting DNA fragment was cloned into the SP64T expression vector and verified by sequencing.
Oocytes were obtained as described previously. Briefly, adult (>2 years old) female X. laevis frogs (NASCO) were anesthetized in a cooled solution of ethyl 3-amino benzoate methanesulfonate (0.1%, w/v), followed by a surgical removal of parts of the ovary. The ovary lobes were carefully dissected and small pieces of oocytes were incubated in Ca^2+-free ND96 buffer (96 mM NaCl, 2 mM KCl, 1 mM MgCl2 buffered with 5 mM HEPES/NaOH, pH 7.5) supplemented with collagenase D (0.1%, w/v; Roche), BSA (0.5%, w/v), and 9 mm Na2HPO4 at 18 °C for 14-16 h while gentle shaking. After incubation, the oocytes were carefully washed several times with ND96 buffer (96 mM NaCl, 2 mM KCl, 1.8 mM CaCl2, 1 mM MgCl2 buffered with 5 mM HEPES/NaOH, pH 7.5) supplemented with 100 mg l^−1 gentamycin). Defolliculated and healthy-looking stage V-VI oocytes were manually selected for RNA microinjection. The RNA was generated as following: The codon-optimized sequences of PfCRT variants were cloned into the pSP64T expression vector. After vector linearization using the restriction endonucleases BamHI or SalI (New England Biolabs), transcription was performed using the in vitro SP6 mMessage mMachine Kit (Ambion)[34]. The obtained RNA was kept at −80 °C and diluted with nuclease-free water to a concentration of 0.6 μg μl^−1. […]
Drug uptake assays were performed as described previously[21],[22],[24],[34]. […] The radioactivity of each sample was measured using a liquid scintillation analyzer Tri-Carb 4910 TR (PerkinElmer). Oocytes that were injected with water instead of RNA were analyzed in parallel, representing the uptake of a drug by diffusion and/or endogenous permeation pathways. […]

PfCRT variant Y177A = assay: CQ uptake assay, oocytes expressing Y177A; format: cell-based, Plasmodium falciparum
Procedure: as §1
(§2) Oocytes were obtained as described previously. Briefly, adult (>2 years old) female X. laevis frogs (NASCO) were anesthetized in a cooled solution of ethyl 3-amino benzoate methanesulfonate (0.1%, w/v), followed by a surgical removal of parts of the ovary. The ovary lobes were carefully dissected and small pieces of oocytes were incubated in Ca^2+-free ND96 buffer (96 mM NaCl, 2 mM KCl, 1 mM MgCl2 buffered with 5 mM HEPES/NaOH, pH 7.5) supplemented with collagenase D (0.1%, w/v; Roche), BSA (0.5%, w/v), and 9 mm Na2HPO4 at 18 °C for 14-16 h while gentle shaking. After incubation, the oocytes were carefully washed several times with ND96 buffer (96 mM NaCl, 2 mM KCl, 1.8 mM CaCl2, 1 mM MgCl2 buffered with 5 mM HEPES/NaOH, pH 7.5) supplemented with 100 mg l^−1 gentamycin). Defolliculated and healthy-looking stage V-VI oocytes were manually selected for RNA microinjection. The RNA was generated as following: The codon-optimized sequences of PfCRT variants were cloned into the pSP64T expression vector. After vector linearization using the restriction endonucleases BamHI or SalI (New England Biolabs), transcription was performed using the in vitro SP6 mMessage mMachine Kit (Ambion)[34]. The obtained RNA was kept at −80 °C and diluted with nuclease-free water to a concentration of 0.6 μg μl^−1. Precision-bore glass capillary tubes (3.5-inch glass capillaries; Drummond Scientific Co.) were pulled on a vertical puller (P-87 Flaming/Brown micropipette puller, Sutter Instrument Co.), graduated, and placed on a microinjector (Nanoject II Auto-Nanoliter Injector, Drummond Scientific Co.). 50 nl of nuclease-free water alone (control oocytes) or 50 nl of 0.6 μg μl^−1 RNA were injected under stereomicroscopic control. Injected oocytes were incubated for 46–72 h at 18 °C with twice-daily buffer changes before usage in experiments.
(§3) Drug uptake assays were performed as described previously[21],[22],[24],[34]. […] The direction of radio-labeled drug transport is here from the mostly acidic extracellular solution (pH 4.5 or 6.0, as indicated) into the oocyte cytosol (pH ∼ 7.2), which corresponds to the efflux of drug from the acidic digestive vacuole (pH 5.2) into the parasite cytoplasm (pH 7.2). The topology of PfCRT in the oolemma is such that both the N- and C-terminus face the extracellular milieu[3],[22]. In the parasite, the N- and C-terminus face the lumen of the digestive vacuole. CQ uptake kinetics were performed by incubating oocytes in ND96 buffer adjusted to a pH of 4.5, 5.0, 5.5, or 6.0 and supplemented with 50 nM [^3H]CQ and one of 7 different CQ concentrations (10 µM, 50 µM, 100 µM, 200 µM, 300 µM, 400 µM, 500 µM CQ). The reaction was stopped at the 60 min time point, which is in the linear uptake range[22],[34] (Supplementary Fig. 17). […] The radioactivity of each sample was measured using a liquid scintillation analyzer Tri-Carb 4910 TR (PerkinElmer). Oocytes that were injected with water instead of RNA were analyzed in parallel, representing the uptake of a drug by diffusion and/or endogenous permeation pathways. […]

PfCRT variant D368A = target: T2, PfCRT variant D368A (Plasmodium falciparum, UniProt Q9N623, A220S/D368A/I356T/K76T/M74I/N326S/N75E/Q271E/R371I); assay: CQ uptake assay, oocytes expressing D368A; format: cell-based
T2 sequence (Q9N623 1-424 M74I/N75E/K76T/A220S/Q271E/N326S/I356T/D368A/R371I): T1 sequence (Q9N623 1-424 E54A/M74I/N75E/K76T/A220S/Q271E/N326S/I356T/R371I) with A54E, D368A
Procedure: as §1, §2, §3

[1] = Y177A, 50 µM CQ, 1 h, mean ± SEM
[2] = pH 4.5, single replicates, Fig 1d left
[3] = pH 6.0, single replicates, Fig 1d left
[4] = D368A, 50 µM CQ, 1 h, mean ± SEM

With CCN(CC)CCCC(C)Nc1ccnc2cc(Cl)ccc12 (stereo not shown) [CQ, chloroquine] the “Activity at pH 4.5” value (PfCRT variant E54A; 50 µM CQ, 1 h, mean ± SEM) was 1.38 ± 0.17 pmol h-1 oocyte-1, the “Activity at pH 6.0” value (PfCRT variant E54A; 50 µM CQ, 1 h, mean ± SEM) was 3.36 ± 0.45 pmol h-1 oocyte-1 and the R-value (PfCRT variant E54A; CQ transport at pH 4.5 / pH 6.0) was 0.44 ± 0.07. For the same molecule, the “Activity at pH 4.5” value (PfCRT variant Y177A; [1]) was 1.25 ± 0.21 pmol h-1 oocyte-1, the “Activity at pH 6.0” value (PfCRT variant Y177A; [1]) was 2.94 ± 0.26 pmol h-1 oocyte-1 and the R-value (PfCRT variant Y177A; Y177A, CQ transport at pH 4.5 / pH 6.0) was 0.44 ± 0.11. For the same molecule, the “Y177A transport activity pH 4.5” value (PfCRT variant Y177A; [2]) was 0.79 pmol oocyte-1 h-1 and 1.73 pmol oocyte-1 h-1 and 1.60 pmol oocyte-1 h-1 and 0.87 pmol oocyte-1 h-1, the “Y177A transport activity pH 6.0” value (PfCRT variant Y177A; [3]) was 2.11 pmol oocyte-1 h-1 and 3.29 pmol oocyte-1 h-1 and 2.90 pmol oocyte-1 h-1 and 3.47 pmol oocyte-1 h-1 and the “Activity at pH 4.5” value (PfCRT variant D368A; [4]) was 1.36 ± 0.32 pmol h-1 oocyte-1. For the same molecule, the “Activity at pH 6.0” value (PfCRT variant D368A; [4]) was 3.05 ± 0.29 pmol h-1 oocyte-1, the R-value (PfCRT variant D368A; D368A, CQ transport at pH 4.5 / pH 6.0) was 0.44 ± 0.08 and the “D368A transport activity pH 4.5” value (PfCRT variant D368A; [2]) was 2.14 pmol oocyte-1 h-1 and 0.90 pmol oocyte-1 h-1 and 1.05 pmol oocyte-1 h-1. The “D368A transport activity pH 6.0” value (PfCRT variant D368A; [3]) was 3.49 pmol oocyte-1 h-1 and 3.31 pmol oocyte-1 h-1 and 2.36 pmol oocyte-1 h-1.
